From the supplement of paper PMC4862054

Experiments:
Settings in all cases: incubation time: 72 h
BT-474 [1] = assay: normalised response (% of control), CellTox Green; higher = less cell death (100 = DMSO, 0 = benzethonium chloride kill control)
Method in brief: (§1)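 Breast cancer cell lines in 20 µl suspension were added to 384-well plates containing compound at 5 concentrations, spaced in 10-fold steps across a 10,000-fold range chosen for each compound, and incubated for 72 h. CellTox Green fluorescence was read at 485/520 nm, followed by CellTiter-Glo luminescence after 10 min at room temperature. Signals on each plate were normalised so that 0.1 % DMSO equals 100 and a positive kill control equals 0. Every value in the table is the normalised signal at one concentration of the series.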

BT-549 [2] = assay: as above
Method in brief: as §1

CAL-120 [3] = assay: as above
Method in brief: as §1

CAL-148 [4] = assay: as above
Method in brief: as §1

CAL-51 [5] = assay: as above
Method in brief: as §1

CAL-85-1 [6] = assay: as above
Method in brief: as §1

DU-4475 [7] = assay: as above
Method in brief: as §1

HCC1143 [8] = assay: as above
Method in brief: as §1

HCC1599 [9] = assay: as above
Method in brief: as §1

HCC1937 [10] = assay: as above
Method in brief: as §1

HDQ-P1 [11] = assay: as above
Method in brief: as §1

Hs578T [12] = assay: as above
Method in brief: as §1

MCF-10A [13] = assay: as above
Method in brief: as §1

MDA-MB-231 [14] = assay: as above
Method in brief: as §1

MDA-MB-436 [15] = assay: as above
Method in brief: as §1

MDA-MB-453 [16] = assay: as above
Method in brief: as §1

MDA-MB-468 [17] = assay: as above
Method in brief: as §1

MFM-223 [18] = assay: as above
Method in brief: as §1

BT-474 [19] = assay: normalised response (% of control), CellTiter-Glo; higher = more viable cells (100 = DMSO, 0 = benzethonium chloride kill control)
Method: (§2)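 DSRT, 72 h incubation, CellTox Green / CellTiter-Glo readout. Signal is normalised to DMSO and benzethonium chloride controls. Value is the normalised response at dose 3.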

BT-549 [20] = assay: as above
Method: as §2

CAL-120 [21] = assay: as above
Method: as §2

CAL-148 [22] = assay: as above
Method: as §2

CAL-51 [23] = assay: as above
Method: as §2

CAL-85-1 [24] = assay: as above
Method: as §2

DU-4475 [25] = assay: as above
Method: as §2

HCC1143 [26] = assay: as above
Method: as §2

HCC1599 [27] = assay: as above
Method: as §2

HCC1937 [28] = assay: as above
Method: as §2

HDQ-P1 [29] = assay: as above
Method: as §2

Hs578T [30] = assay: as above
Method: as §2

MCF-10A [31] = assay: as above
Method: as §2

MDA-MB-231 [32] = assay: as above
Method: as §2

MDA-MB-436 [33] = assay: as above
Method: as §2

MDA-MB-453 [34] = assay: as above
Method: as §2

MDA-MB-468 [35] = assay: as above
Method: as §2

MFM-223 [36] = assay: as above
Method: as §2

SK-BR-3 = assay: as above
Method: as §2

Row | Structure (SMILES) | normalised response (BT-474 [1]) [%] | normalised response (BT-549 [2]) [%] | normalised response (CAL-120 [3]) [%] | normalised response (CAL-148 [4]) [%] | normalised response (CAL-51 [5]) [%] | normalised response (CAL-85-1 [6]) [%] | normalised response (DU-4475 [7]) [%] | normalised response (HCC1143 [8]) [%] | normalised response (HCC1599 [9]) [%] | normalised response (HCC1937 [10]) [%] | normalised response (HDQ-P1 [11]) [%] | normalised response (Hs578T [12]) [%] | normalised response (MCF-10A [13]) [%] | normalised response (MDA-MB-231 [14]) [%] | normalised response (MDA-MB-436 [15]) [%] | normalised response (MDA-MB-453 [16]) [%] | normalised response (MDA-MB-468 [17]) [%] | normalised response (MFM-223 [18]) [%] | normalised response (BT-474 [19]) [%] | normalised response (BT-549 [20]) [%] | normalised response (CAL-120 [21]) [%] | normalised response (CAL-148 [22]) [%] | normalised response (CAL-51 [23]) [%] | normalised response (CAL-85-1 [24]) [%] | normalised response (DU-4475 [25]) [%] | normalised response (HCC1143 [26]) [%] | normalised response (HCC1599 [27]) [%] | normalised response (HCC1937 [28]) [%] | normalised response (HDQ-P1 [29]) [%] | normalised response (Hs578T [30]) [%] | normalised response (MCF-10A [31]) [%] | normalised response (MDA-MB-231 [32]) [%] | normalised response (MDA-MB-436 [33]) [%] | normalised response (MDA-MB-453 [34]) [%] | normalised response (MDA-MB-468 [35]) [%] | normalised response (MFM-223 [36]) [%] | normalised response (SK-BR-3) [%]
1 | CCc1cnn2c(NCc3ccc[n+]([O-])c3)cc(N3CCCC[C@H]3CCO)nc12 [Dinaciclib] (10 nM) | 92 | 95 | 96.6 | 93.2 | 87.1 | 67.9 | 103 | 93.7 | 92 | 107 | 72.3 | -11 | 107 | 36.4 | 54 | 104 | 82.9 | 93.8 | 67.7 | 68.7 | 88.1 | 101 | 65.7 | 24.4 | 89 | 68.5 | 75.8 | 91.2 | 71.2 | 79.9 | 105 | 28.2 | 53.5 | 94.8 | 90.3 | 85.2 | 37.4
2 | COc1cc2c(Oc3ccc(NC(=O)C4(C(=O)Nc5ccc(F)cc5)CC4)cc3F)ccnc2cc1OCCCN1CCOCC1 [Foretinib] (10 nM) | 86.5 | 95.3 | 91.5 | 105 | 109 | 107 | 102 | 104 | 102 | 97.2 | 76.9 | 104 | 107 | 102 | 79.1 | 84.9 | 139 | 97.2 | 102 | 105 | 102 | 105 | 119 | 100 | 103 | 99.6 | 112 | 94.7 | 96.8 | 99.2 | 99.5 | 97.7 | 104 | 107 | 104 | 103 | 104
3 | CC[C@@H]1C(=O)N(C)c2cnc(Nc3ccc(C(=O)N[C@H]4CC[C@H](N5CCN(CC6CC6)CC5)CC4)cc3OC)nc2N1C(C)C [Volasertib] (10 nM) | 71.2 | 100 | 91.6 | 86 | 65.5 | 69.5 | 95.3 |  | 91.3 | 53.5 | 87 | 77 |  | 71.8 | 19.6 | 92.4 | 34.3 | 1.2 | 82.6 | 89.8 | 88.5 | 84.4 | 84.2 | 70.4 | 100 | 82 | 106 | 83 | 86.3 | 96.3 | 87.9 | 79.9 | 59.5 | 65.4 | 68.3 | 54.6 | 54.8
4 | Cn1nnc2c(C(N)=O)ncn2c1=O [Temozolomide] (100 nM) | 97.8 | 101 | 99.2 | 100 | 108 | 107 | 101 | 96.3 | 89.7 | 82.5 | 81.8 | 89.4 | 89.1 | 110 | 104 | 105 | 92.8 | 102 | 95.4 | 106 | 99.7 | 98.8 | 107 | 93.6 | 96.8 | 101 | 90.9 | 88.2 | 93.2 | 103 | 103 | 101 | 98.8 | 102 | 100 | 104 | 96.5
5 | CC(C)C(=O)Nc1ccc([N+](=O)[O-])c(C(F)(F)F)c1 [Flutamide] (100 nM) | 99.8 | 94.1 | 104 | 92.5 | 111 | 89.6 | 99.3 | 68.4 | 96.9 | 57.6 | 105 | 87.2 | 50.2 | 97.2 | 82 | 104 | 124 | 95.8 | 101 | 101 | 98.5 | 100 | 113 | 95 | 104 | 103 | 111 | 94.9 | 98.5 | 98 | 96.8 | 102 | 102 | 109 | 94 | 98 | 95.9
